Patent US20030212109A1, “Pharmaceutical compositions and their use” (priority 2000, published 2003)

Tests used:
[1] = test system: 5-HT concentrations; assay: Brain microdialysis, acute oral administration; 5-HT in perfusate by HPLC with electrochemical detection; assay type: in vivo; conditions: brain dialysate
Procedure: (§1) Animals with dialysis probes inserted in brain regions were placed in the dialysis apparatus and the probes perfused with artificial cerebrospinal fluid. Samples of perfusate were collected every 20 minutes after an initial 30 minute washout period. Basal samples were collected for 2 hours before administration of drug or vehicle by the oral route. Further samples were collected for up to 4 hours post drug administration. Samples were analysed for 5-HT by HPLC with electrochemical detection.
Data was expressed as a percentage of a pre-injection control, obtained by averaging the last three samples prior to drug/vehicle administration. Transformed data (natural log of percentages) was analysed by ANOVA with repeated measures.

[2] = test system: 5-HT concentrations; assay: Brain microdialysis after chronic (21 day) administration; 5-HT in perfusate; assay type: in vivo; conditions: 10 mg/kg, percentage increase over vehicle treated controls
Procedure: as §1
The method differed from that for acute administration in that animals were treated with fluoxetine or vehicle for 21 days prior to placement in the dialysis apparatus. The subsequent manipulations were as described above. The 5-HT concentration in the treated group was expressed as the percentage increase over vehicle treated controls.

Compound | % increase in 5-HT concentrations ([1]; 10 mg/kg, oral) | % increase in 5-HT concentrations ([1]; 10 or 20 mg/kg, oral (maximum possible response)) | % increase in 5-HT concentrations [2]
CC1(C)C(=O)N(CCN2CCC(C(=O)c3ccc(F)cc3)CC2)c2ccccc21.Cl [Compound of formula (I), 1-[2-[4-(4-fluorobenzoyl)-1-piperidinyl]ethyl]-1,3-dihydro-3,3-dimethyl-2H-indol-2-one, monohydrochloride] | 110% | – | –
CNCCC(Oc1ccc(C(F)(F)F)cc1)c1ccccc1 (stereo not drawn) [Fluoxetine, N-methyl-3-(p-trifluoromethylphenoxy)-3-phenylpropylamine] | – | 99% | 184%
